Seven compounds from US20260053834A1, “COVALENT MODIFIERS OF AKT1 AND USES THEREOF” (Terremoto Biosciences, Inc., priority 2023, published 2026) can be followed below.

Structures are written as SMILES.

Assay [1] relates to LAPC4 prostate cancer cells, which express the AKT1 E17K allele. Description: Antiproliferative effects in LAPC4 cells (CellTiter Glo, 72 h). The assay is classed as cell-based. The note with it: Homo sapiens, LAPC4, 72 h, read-out: LAPC4 proliferation IC50: GeoMean IC50. A digest of the protocol:
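IC50 values come from Hill-equation fitting of luminescence (cellular ATP) after 72 h compound exposure. Treated wells held 1,000 cells each, with compound delivered as DMSO dilutions. Culture medium was IMDM plus 12% FBS.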

The target in a further assay is T1, AKT1 E17K (Homo sapiens, UniProt P31749, E17K).
T1 construct: expressed in transfected cells; host or cells: HEK293
T1 sequence (P31749 whole entry E17K): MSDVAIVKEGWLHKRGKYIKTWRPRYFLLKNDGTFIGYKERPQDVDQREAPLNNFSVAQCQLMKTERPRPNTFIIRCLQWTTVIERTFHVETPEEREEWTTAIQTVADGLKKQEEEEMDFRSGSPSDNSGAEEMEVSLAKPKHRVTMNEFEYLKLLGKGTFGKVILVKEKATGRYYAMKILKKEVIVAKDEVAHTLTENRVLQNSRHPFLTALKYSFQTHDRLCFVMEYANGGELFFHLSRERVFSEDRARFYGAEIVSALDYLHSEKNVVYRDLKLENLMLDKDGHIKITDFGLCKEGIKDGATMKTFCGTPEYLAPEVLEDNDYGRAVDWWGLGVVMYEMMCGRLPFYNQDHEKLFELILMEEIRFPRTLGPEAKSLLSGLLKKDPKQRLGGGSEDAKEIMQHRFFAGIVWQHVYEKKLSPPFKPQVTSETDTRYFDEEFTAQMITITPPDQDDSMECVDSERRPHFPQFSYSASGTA
Briefly: Live cell target engagement by NanoBRET competitive probe displacement, AKT1 E17K. The assay is classed as binding. The note with it: transfected HEK293 cells, 2 h at 37° C., read-out: AKT1 E17K IC50: GeoMean IC50. On the technique in general: BRET reads energy transfer from a luciferase to a nearby fluorophore.

The next assay concerns the target T2, AKT1 WT (Homo sapiens, UniProt P31749).
T2 construct: expressed in transfected cells; host or cells: HEK293
Description: Live cell target engagement by NanoBRET competitive probe displacement, AKT1 WT. The assay is classed as binding. The note with it: transfected HEK293 cells, 2 h at 37° C., read-out: AKT1 WT IC50: GeoMean IC50.

For another assay, the target named is T3, AKT2 (Homo sapiens, UniProt P31751).
T3 construct: expressed in transfected cells; host or cells: HEK293
T3 sequence (P31751 whole entry): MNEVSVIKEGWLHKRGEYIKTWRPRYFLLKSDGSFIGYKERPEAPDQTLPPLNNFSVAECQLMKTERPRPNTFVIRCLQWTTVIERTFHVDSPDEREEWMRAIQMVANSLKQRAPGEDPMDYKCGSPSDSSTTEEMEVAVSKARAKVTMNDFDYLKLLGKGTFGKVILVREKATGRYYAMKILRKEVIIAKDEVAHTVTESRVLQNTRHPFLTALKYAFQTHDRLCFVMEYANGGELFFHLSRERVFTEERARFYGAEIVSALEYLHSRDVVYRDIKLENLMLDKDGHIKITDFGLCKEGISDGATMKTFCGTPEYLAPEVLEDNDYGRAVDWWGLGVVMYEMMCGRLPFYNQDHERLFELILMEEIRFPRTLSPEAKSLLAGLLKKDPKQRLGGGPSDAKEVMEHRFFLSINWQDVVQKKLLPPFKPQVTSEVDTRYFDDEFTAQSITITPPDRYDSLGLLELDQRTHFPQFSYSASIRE
Description: Live cell target engagement by NanoBRET competitive probe displacement, AKT2. The assay is classed as binding. The conditions noted are these: transfected HEK293 cells, 2 h at 37° C., read-out: AKT2 IC50: GeoMean IC50.

T2 sequence (P31749 whole entry): as the sequence (P31749 whole entry E17K) above, with K17E counted along it

As for `Cc1cc(-n2nccn2)nc2c1nc(-c1cccnc1N)n2-c1ccc2c(c1)CC[C@@H]2NC(=O)c1ccc(O)c(C=O)c1` [Example 234, N-[(1S)-5-[2-(2-aminopyridin-3-yl)-7-methyl-5-(1,2,3-triazol-2-yl)imidazo[4,5-b]pyridin-3-yl]-2,3-dihydro-1H-inden-1-yl]-3-formyl-4-hydroxybenzamide], the IC50 in assay [1] fell in the range of 10 to 100 nM; on AKT1 E17K, 10 to 100 nM; on AKT1 WT, 10 to 100 nM; at AKT2 it was 100 to 2000 nM.

In the case of `[N-]=[N+]=Nc1cc(O)c(C=O)cc1C(=O)N[C@H]1CCc2cc(-n3c(-c4cccnc4N)nc4ccc(-n5cccn5)nc43)ccc21` [Example 235, N-[(1S)-5-[2-(2-aminopyridin-3-yl)-5-(pyrazol-1-yl)imidazo[4,5-b]pyridin-3-yl]-2,3-dihydro-1H-inden-1-yl]-2-azido-5-formyl-4-hydroxybenzamide], the IC50 in assay [1] was in the range of 100 to 2000 nM; at AKT1 E17K it was 10 to 100 nM; on AKT1 WT, 100 to 2000 nM; on AKT2, 100 to 2000 nM.

Take `COc1cc(F)c(C(=O)N[C@H]2CCc3cc(-n4c(-c5cccnc5N)nc5ccc(-n6cccn6)nc54)ccc32)cc1C=O` [Example 236, N-[(1S)-5-[2-(2-aminopyridin-3-yl)-5-(pyrazol-1-yl)imidazo[4,5-b]pyridin-3-yl]-2,3-dihydro-1H-inden-1-yl]-2-fluoro-5-formyl-4-methoxybenzamide]: the IC50 is 100 to 2000 nM in assay [1], 10 to 100 nM on AKT1 E17K, under 10 nM at AKT1 WT and 10 to 100 nM on AKT2.

On to `Nc1cc(O)c(C=O)cc1C(=O)N[C@H]1CCc2cc(-n3c(-c4cccnc4N)nc4ccc(-n5cccn5)nc43)ccc21` [Example 237, 2-amino-N-[(1S)-5-[2-(2-aminopyridin-3-yl)-5-(pyrazol-1-yl)imidazo[4,5-b]pyridin-3-yl]-2,3-dihydro-1H-inden-1-yl]-5-formyl-4-hydroxybenzamide], for which the IC50 in assay [1] was 100 to 2000 nM; at AKT1 E17K, 10 to 100 nM; at AKT1 WT it was 10 to 100 nM; at AKT2, 100 to 2000 nM.

In the case of `Nc1ncccc1-c1nc2ccc(-n3cccn3)nc2n1-c1ccc2c(c1)CC[C@@H]2n1c(=O)[nH]c2cc(O)c(C=O)cc2c1=O` [Example 238, 3-[(1S)-5-[2-(2-aminopyridin-3-yl)-5-(pyrazol-1-yl)imidazo[4,5-b]pyridin-3-yl]-2,3-dihydro-1H-inden-1-yl]-7-hydroxy-2,4-dioxo-1H-quinazoline-6-carbaldehyde], the IC50 in assay [1] is at least 2000 nM; at AKT1 E17K it was 100 to 2000 nM; at AKT1 WT, at least 2000 nM; on AKT2, at least 2000 nM.

For `Nc1ncccc1-c1nc2ccc(-n3cccn3)nc2n1-c1ccc2c(c1)CC[C@@H]2NCc1cc(C=O)c(O)cc1F` [Example 239, 5-({[(1S)-5-[2-(2-aminopyridin-3-yl)-5-(pyrazol-1-yl)imidazo[4,5-b]pyridin-3-yl]-2,3-dihydro-1H-inden-1-yl]amino}methyl)-4-fluoro-2-hydroxybenzaldehyde], the IC50 is at least 2000 nM in assay [1], 10 to 100 nM on AKT1 E17K, 10 to 100 nM on AKT1 WT and 100 to 2000 nM at AKT2.

Turning to `Nc1ncccc1-c1nc2ccc(-c3ccn(C4CC4)n3)nc2n1-c1ccc2c(c1)CC[C@@H]2NC(=O)c1cc(C=O)c(O)cc1F` [Example 240, N-[(1S)-5-[2-(2-aminopyridin-3-yl)-5-(1-cyclopropylpyrazol-3-yl)imidazo[4,5-b]pyridin-3-yl]-2,3-dihydro-1H-inden-1-yl]-2-fluoro-5-formyl-4-hydroxybenzamide], the IC50 fell in the range of 10 to 100 nM in assay [1], 10 to 100 nM on AKT1 E17K, 10 to 100 nM on AKT1 WT and 100 to 2000 nM at AKT2.
